This note sets out measurements from ChEMBL document CHEMBL3507680, “University of Dundee, Gates Library screen for HepG2 cell viability”.

A short description of this series: Human HepG2 cell viability assay in 384 well format. Format: toxicity, cell-based. The conditions noted are these: HepG2 cells, read-out: Inhibition. Further details: dose 125 nL, time 70.5 hour; concentration not given beside the values.
Turning to `CC(=O)NCc1noc2c1CN(Cc1ccsc1)CC2`, the cytotoxicity at 70.5 h is -7.56%.

With `Cc1ccc(CN2C[C@H]3C[C@H](C(=O)NCc4cccnc4)[C@@H](C2)O3)o1`, the cytotoxicity at 70.5 h was -8.69%.

Consider `Cc1cccc(S(=O)(=O)N2C[C@H]3C[C@H](C(=O)NCC(C)C)[C@@H](C2)O3)c1`, for which the cytotoxicity at 70.5 h amounted to 25.7%.

With `CCN(CC)c1ccc2ccc(C(=O)O)cn12`, the cytotoxicity at 70.5 h was -5.88%.

On to `Cc1cc(CN2C[C@@H]3COC[C@]3(c3nnc(C)o3)C2)no1`, for which the cytotoxicity at 70.5 h turned out to be 16.2%.

With `Cc1cnc(N2C[C@@H]3[C@@H](C2)OCC(=O)N3CC2CC2)nc1`, the cytotoxicity at 70.5 h was determined as 14.2%.

Take `O=C(C1CCCO1)N1CCC2(CC1)CNCCO2` (centres undefined): the cytotoxicity at 70.5 h was found to be 9.56%.

As to `CC(C)NC(=O)c1ccc2c(c1)C(c1nc[nH]n1)CN2C` (centres undefined), the cytotoxicity at 70.5 h is -8.61%.

Take `Cc1cnc(NC2CCc3c(ccc(=O)n3C)C2)nc1` (centres undefined): the cytotoxicity at 70.5 h was -4.77%.

Turning to `COc1ccc(CN2CCO[C@H]3CN(C(=O)C4CC4)CC[C@H]3C2=O)cc1`, the cytotoxicity at 70.5 h was -12%.

Regarding `CC(C)N1CCN(C)CC1c1nnc2ccc(C(=O)N3CCCC3)cn12` (centres undefined), the cytotoxicity at 70.5 h is -11.5%.

In the case of `CC(=O)N1CCC2(CC1)CN(C(=O)c1cccc3[nH]ccc13)C2`, the cytotoxicity at 70.5 h is -11.6%.

In the case of `CC(C)NC(=O)c1ccc2c(c1)C(c1nc[nH]n1)CN2S(C)(=O)=O` (centres undefined), the cytotoxicity at 70.5 h was -14.8%.

On to `O=C1[C@@H]2CCN(C3CCC3)C[C@@H]2OCCN1Cc1ccncc1`, for which the cytotoxicity at 70.5 h came to 20.5%.

`O=C(NC1CCC1)C1CCC2(CN(C(=O)c3ccco3)C2)O1` (centres undefined): the cytotoxicity at 70.5 h is -13.3%.

As to `CN(C)C(=O)NCc1nnc2n1CCN(Cc1cccs1)C2`, the cytotoxicity at 70.5 h was -2.91%.

`CCOC1CC2(CCN(C(=O)COC)CC2)c2cc(C)ccc21` (centres undefined): the cytotoxicity at 70.5 h was -9.53%.

In the case of `N#CCC(=O)NCc1nnc2n1CCN(Cc1ccsc1)C2`, the cytotoxicity at 70.5 h came out at 9.84%.

In the case of `CC(=O)N1Cc2nccn2CC(CNC(=O)c2ccnnc2)C1` (centres undefined), the cytotoxicity at 70.5 h is 9.01%.

Regarding `CN(C)S(=O)(=O)N1C[C@H]2CCC[C@@]2(COCC2CCOCC2)C1`, the cytotoxicity at 70.5 h was determined as 9.65%.

On to `CCN1CC2(CC1=O)CN(C(=O)c1ccoc1)CCN(C(=O)N(C)C)C2` (centres undefined), for which the cytotoxicity at 70.5 h came out at 3.23%.

On to `CCN1CC2(CC1=O)CN(C(=O)c1ccsc1)CCN(C(=O)N(C)C)C2` (centres undefined), for which the cytotoxicity at 70.5 h turned out to be 3.77%.

In the case of `c1ccc(COC[C@H]2CC[C@H]3[C@H](CCN3Cc3ccco3)O2)nc1`, the cytotoxicity at 70.5 h is -6.26%.

`CN1Cc2c(C(=O)NCC3CCCO3)ncn2-c2ccccc2S1(=O)=O` (centres undefined): the cytotoxicity at 70.5 h was -0.787%.

For `CCS(=O)(=O)N1CC[C@H]2[C@H]1CC(=O)N2Cc1csc(C)n1`, the cytotoxicity at 70.5 h is -1.34%.

Take `COc1nn(C)c2c1CCCN(C(=O)c1ccsc1)C2`: the cytotoxicity at 70.5 h is -108%.

Consider `COCCC(=O)N1CCC2(CCCN2Cc2ccccc2)C1` (centres undefined), for which the cytotoxicity at 70.5 h was -52.9%.

On to `COCCO[C@H]1CCN(C(=O)NC2CC2)[C@H]1Cc1cnn(C)c1`, for which the cytotoxicity at 70.5 h is -123%.

With `CCC1=N[C@@]2(CC[C@@H]3CN(C(=O)Nc4ccccc4)C[C@@H]32)C(=O)N1CC`, the cytotoxicity at 70.5 h is -85.5%.

`CCN1C(=O)[C@]2(CC[C@@H]3CN(C(=O)Nc4ccc(F)cc4)C[C@@H]32)N=C1C`: the cytotoxicity at 70.5 h was -77.4%.

As to `CC(=O)N1CCC2(CC1)CN(C)C(=O)C[C@H]2C(F)(F)F`, the cytotoxicity at 70.5 h was -7.04%.

Consider `O=C(N[C@@H]1CN[C@H]2CCCO[C@H]21)c1cnccn1`, for which the cytotoxicity at 70.5 h is -0.404%.

As to `c1csc(N2[C@H](Cn3cncn3)C[C@@H]3CNCC[C@@H]32)n1`, the cytotoxicity at 70.5 h stood at 10.2%.

For `c1c(CN2CCCCC2)nc2n1CCNC2`, the cytotoxicity at 70.5 h is 8.55%.

With `O=S(=O)(c1ccc(F)cc1)N1CC[C@H]2[C@H]1CCN2c1ncccn1`, the cytotoxicity at 70.5 h is -2.97%.

Consider `O=S(=O)(c1cccc(F)c1)N1CC[C@H]2[C@H]1CCN2c1ncccn1`, for which the cytotoxicity at 70.5 h worked out at 1.7%.

For the compound `CN(C)c1cc(NCc2cnc3n2CCN(CC2CC2)CC3)ncn1`, the cytotoxicity at 70.5 h worked out at 2.24%.

As to `Cn1ccc(CN2CCC3(CC2)CC(Nc2ccccn2)CO3)n1` (centres undefined), the cytotoxicity at 70.5 h was -2.31%.

`COCCN1CCO[C@H]2CN(C(=O)c3cccs3)C[C@H]21`: the cytotoxicity at 70.5 h was -7.52%.

On to `O=C(CC1CC1)NC[C@]12COC[C@H]1CN(c1ncc(F)cn1)C2`, for which the cytotoxicity at 70.5 h is -2.2%.

As for `COc1ccc(CN2CCO[C@H]3CN(C4CCCC4)CC[C@H]3C2=O)cc1`, the cytotoxicity at 70.5 h was -1.08%.

Take `COc1ccc(CN2CCO[C@H]3CN(C4CCC4)CC[C@H]3C2=O)cc1`: the cytotoxicity at 70.5 h was -0.486%.

Take `CC(C)CN1CC[C@@H]2[C@H](CC1)N(C(=O)c1ccccc1)CCS2(=O)=O`: the cytotoxicity at 70.5 h was -1.5%.

On to `COCC(=O)NC[C@]12COC[C@H]1CN(c1ncc(F)cn1)C2`, for which the cytotoxicity at 70.5 h is -7.55%.

With `O=C(CC1CC1)NC[C@]12COC[C@H]1CN(c1ncccn1)C2`, the cytotoxicity at 70.5 h was -8%.

With `Fc1cnc(N2CCn3c(CN4CCCC4)nnc3C2)nc1`, the cytotoxicity at 70.5 h was -9.62%.

Turning to `CC(=O)N1CCC2(CC1)CC(N1CCOCC1)c1ccc(C)cc12` (centres undefined), the cytotoxicity at 70.5 h is -8.04%.

Take `Cc1cnc(N2CCn3c(CN4CCOCC4)nnc3C2)nc1`: the cytotoxicity at 70.5 h stood at 21.1%.

On to `Cn1cnc(S(=O)(=O)N2C[C@H](OCC3CC3)[C@H]3OCCC[C@H]32)c1`, for which the cytotoxicity at 70.5 h was 16.2%.

In the case of `Cc1ccc2c(c1)C1(CCN(C(=O)C3CC3)CC1)CC2N1CCOCC1` (centres undefined), the cytotoxicity at 70.5 h is -3.95%.

As to `CO[C@@H]1CN(S(=O)(=O)c2cn(C)cn2)[C@@H]2CCCO[C@@H]21`, the cytotoxicity at 70.5 h is -4.74%.

Regarding `Cn1c2c(ccc1=O)CC(Nc1ncc(F)cn1)CC2` (centres undefined), the cytotoxicity at 70.5 h is -11.5%.

Turning to `CN(C)[C@@H]1CN(C(=O)c2ccc(C#N)cc2)[C@@H]2CCCO[C@H]12`, the cytotoxicity at 70.5 h was determined as 3.23%.

Turning to `CS(=O)(=O)N1Cc2nccn2CC(CNC(=O)c2cccnc2)C1` (centres undefined), the cytotoxicity at 70.5 h was -5.69%.

For the compound `CCN1CCC12CCN(C(=O)c1ccsc1)C2` (centres undefined), the cytotoxicity at 70.5 h was -12.4%.

As to `Cc1cccc(CN2CC3C[C@]3(NC(=O)c3cccc(F)c3)C2)n1` (some centres undefined), the cytotoxicity at 70.5 h was -12.2%.

On to `O=C(c1ccncc1F)N1C[C@@H]2OCCN(CC3CC3)[C@@H]2C1`, for which the cytotoxicity at 70.5 h was -12.9%.

On to `Cc1cc(C(=O)N2C[C@@H]3COC[C@]3(CN(C)C)C2)sc1C`, for which the cytotoxicity at 70.5 h was -11.8%.

Turning to `O=C(c1nc2c(o1)CN(CC1CCC1)C2)N1CCCC1`, the cytotoxicity at 70.5 h stood at 10.5%.

With `Cc1nc(CN2C(=O)C[C@@H]3[C@@H]2CCN3CC2CCOCC2)cs1`, the cytotoxicity at 70.5 h came out at 23.6%.

As to `CN1Cc2c(C(=O)NC3CCCCC3)ncn2-c2ccccc2S1(=O)=O`, the cytotoxicity at 70.5 h stood at 2.35%.

Turning to `COC[C@H]1CC[C@@H]2[C@@H](CCN2Cc2ccco2)O1`, the cytotoxicity at 70.5 h is 20.4%.

In the case of `Cc1cccc(CN2CCc3ncnc(N4CCCC4)c3CC2)n1`, the cytotoxicity at 70.5 h is -2.78%.

As for `O=C(NC[C@H]1OC[C@@H]2CCN(Cc3ccco3)C[C@@H]21)c1ccnnc1`, the cytotoxicity at 70.5 h was -1.68%.

For the compound `c1ccc(CN2CCc3ncnc(C4CC4)c3CC2)cc1`, the cytotoxicity at 70.5 h was 26.7%.

In the case of `CN1CCN(C(=O)c2ncn3c2CN(C)S(=O)(=O)c2ccccc2-3)CC1`, the cytotoxicity at 70.5 h is 1.76%.

With `CC(C)NC(=O)N1CCCn2cnc(CO)c2C1`, the cytotoxicity at 70.5 h was 6.26%.

For `CCc1ncnc2c1CCN(Cc1ccc3c(c1)OCO3)CC2`, the cytotoxicity at 70.5 h came out at 4.52%.

`Cc1nc(CN2C(=O)C[C@H]3[C@H]2CCN3CC2CCOC2)cs1` (some centres undefined): the cytotoxicity at 70.5 h turned out to be 2.38%.

In the case of `CN(C(=O)c1ncn2c1CN(C)S(=O)(=O)c1ccccc1-2)C1CC1`, the cytotoxicity at 70.5 h was -3.76%.

As for `CC(C)C(C)NC(=O)c1ncn2c1CN(C)S(=O)(=O)c1ccccc1-2` (centres undefined), the cytotoxicity at 70.5 h is -2.58%.

Consider `Cn1cc(CN2CC[C@H]3O[C@H](C(=O)Nc4cnccn4)CC[C@H]32)cn1`, for which the cytotoxicity at 70.5 h stood at 29.6%.

On to `Cc1nc(CN2C(=O)C[C@H]3[C@H]2CCN3C2CCOC2)cs1` (some centres undefined), for which the cytotoxicity at 70.5 h stood at 28.1%.

For the compound `O=C(COC[C@H]1CC[C@H]2[C@H](CCN2c2ccccn2)O1)N1CCCC1`, the cytotoxicity at 70.5 h is -111%.

Take `CCS(=O)(=O)N1CCC2(CN(c3ccsc3)C(=O)CN2C)C1` (centres undefined): the cytotoxicity at 70.5 h was -124%.

For the compound `Cc1cnc(N2CC[C@@H]3OC(COCC(=O)N(C)C)CC[C@@H]32)nc1` (some centres undefined), the cytotoxicity at 70.5 h was -117%.

Turning to `c1cnc(NCc2nnn3c2CN(Cc2ccsc2)CCC3)nc1`, the cytotoxicity at 70.5 h was -118%.

For `Fc1cccc(O[C@@H]2C[C@H]3CN(Cc4ccccn4)CCN3C2)c1`, the cytotoxicity at 70.5 h came to 27.5%.

Take `COc1ncccc1C(=O)N1C[C@@H]2COC[C@]2(CN(C)C)C1`: the cytotoxicity at 70.5 h was -1.76%.

For the compound `Cc1cccc(CN2CC[C@H]3[C@H]2CCN3C(=O)c2cnn(C)c2)n1`, the cytotoxicity at 70.5 h turned out to be 2.83%.

In the case of `Cn1cc(CN2CC[C@@H]3[C@@H](CO[C@H]3CNC(=O)c3ccco3)C2)cn1`, the cytotoxicity at 70.5 h was -3.28%.

Turning to `Cc1cccc(CN2CC[C@H]3O[C@H](C(=O)Nc4cnccn4)CC[C@H]32)n1`, the cytotoxicity at 70.5 h is 1.13%.

Consider `Cc1cccc(CN2CCc3ncnc(NC4CCC4)c3CC2)n1`, for which the cytotoxicity at 70.5 h amounted to 5.7%.

As to `O=c1ccc2c(n1Cc1cccnc1)CCN(Cc1ccoc1)CC2`, the cytotoxicity at 70.5 h turned out to be 4.28%.

Regarding `Cc1nc(CN2CCOCC3(CCN(c4ccccn4)C3)C2)cs1` (centres undefined), the cytotoxicity at 70.5 h was -40.4%.

For `C1CCN(CCO[C@@H]2CC[C@H]3[C@H]2OCCN3CC2CCOCC2)C1`, the cytotoxicity at 70.5 h is -120%.

Turning to `CN1CCN(C(=O)[C@H]2C[C@@H]3CN(c4ncc(F)cn4)C[C@@H]3N2C)CC1`, the cytotoxicity at 70.5 h was -8.27%.

`CC(C)N(C)Cc1nnn2c1CN(Cc1cccnc1)CCC2`: the cytotoxicity at 70.5 h is -101%.

As to `c1cncc(CN2CCCn3nnc(CN4CCCC4)c3C2)c1`, the cytotoxicity at 70.5 h was -64.2%.
